Measured values as given in patent US20260217701A1, “SELECTIVE BET INHIBITORS AND USES THEREOF” (Tay Therapeutics Limited, priority 2022, published 2026).
Marks after values point to notes of the source that are not given here.

Test: EAE study: body weight
Format: in vivo, C57BI/6 mice
Conditions: for Mean Body Weight Change (% of Day −1): mean end body weight
Protocol: Experimental Method H: EAE in animals treated with a BET inhibitor and vehicle. Animals were assigned to the groups outlined in Table 38.
Compound A may be formulated as illustrated in Experimental Method A (see Table 2E.). A 40 mg/mL stock solution of Compound A in DMSO was prepared and aliquots stored at −20° C. On each day of preparation an e.g., 0.75 mL aliquot of thawed stock was diluted with an equal volume of DMSO. The remaining vehicle components were added to provide the highest dose and then diluted with vehicle to provide lower doses. A 30 mg/mL stock solution of FTY720 in ethanol was prepared and stored at −20° C. Daily, the stock solution was diluted with room temperature water to a final dosing concentration of 0.6 mg/mL. Formulated Compound A, FTY720 and vehicle were each at room temperature for dosing.
Female C57BI/6 mice (9 weeks old) were acclimated for seven days prior to study initiation. On Day-1, animals were assigned to groups in a balanced manner to achieve similar average weights across the different groups. Chronic EAE was induced in female C57BI/6 mice following immunization with an emulsion of MOG35-55/CFA on Day 0, followed by an injection of pertussis toxin two hours after the initial immunization. On Day 1, a second injection of pertussis toxin was administered 24 hours after the initial immunization. Mice were injected subcutaneously at two sites on the back with the MOG35-55/CFA emulsion (Hooke Kit™ MOG35-55/CFA Emulsion PTX). The first injection site was located approximately 1 cm caudal of the neckline (upper back), and the second injection site was approximately 2 cm cranial of the base of the tail (lower back). The injection volume was 0.1 mL for each injection. The pertussis toxin was administered at the described times through intraperitoneal injection at a concentration of 85 ng/dose for both injections.
Body weight was measured three times a week (Monday, Wednesday, and Friday) starting on Day-1. Animals were scored daily for EAE starting on Day 7. In-between scores were assigned when the clinical signs fell between two below defined scores.

[1] = Compound A 1 mg/kg (Group 2), Day 0
[2] = Compound A 1 mg/kg (Group 2), Day 2
[3] = Compound A 1 mg/kg (Group 2), Day 5
[4] = Compound A 1 mg/kg (Group 2), Day 7
[5] = Compound A 1 mg/kg (Group 2), Day 9
[6] = Compound A 1 mg/kg (Group 2), Day 12
[7] = Compound A 1 mg/kg (Group 2), Day 14
[8] = Compound A 1 mg/kg (Group 2), Day 16
[9] = Compound A 1 mg/kg (Group 2), Day 19
[10] = Compound A 1 mg/kg (Group 2), Day 21
[11] = Compound A 1 mg/kg (Group 2), Day 23
[12] = Compound A 1 mg/kg (Group 2), Day 27
[13] = Compound A 1 mg/kg (Group 2), Day 28
[14] = Compound A 1 mg/kg (Group 2), Day −1
[15] = Compound A 3 mg/kg (Group 3), Day 0
[16] = Compound A 3 mg/kg (Group 3), Day 2
[17] = Compound A 3 mg/kg (Group 3), Day 5
[18] = Compound A 3 mg/kg (Group 3), Day 7
[19] = Compound A 3 mg/kg (Group 3), Day 9
[20] = Compound A 3 mg/kg (Group 3), Day 12
[21] = Compound A 3 mg/kg (Group 3), Day 14
[22] = Compound A 3 mg/kg (Group 3), Day 16
[23] = Compound A 3 mg/kg (Group 3), Day 19
[24] = Compound A 3 mg/kg (Group 3), Day 21
[25] = Compound A 3 mg/kg (Group 3), Day 23
[26] = Compound A 3 mg/kg (Group 3), Day 27
[27] = Compound A 3 mg/kg (Group 3), Day 28
[28] = Compound A 3 mg/kg (Group 3), Day −1
[29] = Compound A 10 mg/kg (Group 4), Day 0
[30] = Compound A 10 mg/kg (Group 4), Day 2
[31] = Compound A 10 mg/kg (Group 4), Day 5
[32] = Compound A 10 mg/kg (Group 4), Day 7
[33] = Compound A 10 mg/kg (Group 4), Day 9
[34] = Compound A 10 mg/kg (Group 4), Day 12
[35] = Compound A 10 mg/kg (Group 4), Day 14
[36] = Compound A 10 mg/kg (Group 4), Day 16
[37] = Compound A 10 mg/kg (Group 4), Day 19
[38] = Compound A 10 mg/kg (Group 4), Day 21
[39] = Compound A 10 mg/kg (Group 4), Day 23
[40] = Compound A 10 mg/kg (Group 4), Day 27
[41] = Compound A 10 mg/kg (Group 4), Day 28
[42] = Compound A 10 mg/kg (Group 4), Day −1

## Cn1cc(-c2ccccc2)c(-c2cn(C)c(=O)c3[nH]c(-c4cnn(C(F)(F)F)c4)cc23)cc1=O [Compound A, 6-methyl-4-(1-methyl-2-oxo-5-phenyl-1,2-dihydropyridin-4-yl)-2-(1-(trifluoromethyl)-1H-pyrazol-4-yl)-1,6-dihydro-7H-pyrrolo[2,3-c]pyridin-7-one]
1 mg/kg
  Relative end weight (% of the mean Day-1 weight): 100.7%
3 mg/kg
  Relative end weight (% of the mean Day-1 weight): 103%
10 mg/kg
  Relative end weight (% of the mean Day-1 weight): 106%
[1]
  Mean Body Weight: 20.3 g
  Mean Body Weight (% of Day −1): 100.7 % of Day −1
[2]
  Mean Body Weight: 19.8 g
  Mean Body Weight (% of Day −1): 98.4 % of Day −1
[3]
  Mean Body Weight: 20.0 g
  Mean Body Weight (% of Day −1): 99.0 % of Day −1
[4]
  Mean Body Weight: 20.1 g
  Mean Body Weight (% of Day −1): 99.8 % of Day −1
[5]
  Mean Body Weight: 21.4 g
  Mean Body Weight (% of Day −1): 105.3 % of Day −1
[6]
  Mean Body Weight: 20.7 g
  Mean Body Weight (% of Day −1): 102.1 % of Day −1
[7]
  Mean Body Weight: 19.9 g
  Mean Body Weight (% of Day −1): 98.4 % of Day −1
[8]
  Mean Body Weight: 19.4 g
  Mean Body Weight (% of Day −1): 95.7 % of Day −1
[9]
  Mean Body Weight: 19.6 g
  Mean Body Weight (% of Day −1): 96.8 % of Day −1
[10]
  Mean Body Weight: 20.3 g
  Mean Body Weight (% of Day −1): 99.9 % of Day −1
[11]
  Mean Body Weight: 20.7 g
  Mean Body Weight (% of Day −1): 102.0 % of Day −1
[12]
  Mean Body Weight: 20.4 g
  Mean Body Weight (% of Day −1): 100.4 % of Day −1
[13]
  Mean Body Weight: 20.4 g
  Mean Body Weight (% of Day −1): 100.7 % of Day −1
[14]
  Mean Body Weight: 20.1 g
  Mean Body Weight (% of Day −1): 100.0 % of Day −1
Compound A 1 mg/kg
  Mean Body Weight Change (% of Day −1): 100.7* % of Day −1
[15]
  Mean Body Weight: 20.3 g
  Mean Body Weight (% of Day −1): 100.6 % of Day −1
[16]
  Mean Body Weight: 19.5 g
  Mean Body Weight (% of Day −1): 96.7 % of Day −1
[17]
  Mean Body Weight: 19.6 g
  Mean Body Weight (% of Day −1): 97.2 % of Day −1
[18]
  Mean Body Weight: 20.2 g
  Mean Body Weight (% of Day −1): 100.0 % of Day −1
[19]
  Mean Body Weight: 20.5 g
  Mean Body Weight (% of Day −1): 101.6 % of Day −1
[20]
  Mean Body Weight: 20.6 g
  Mean Body Weight (% of Day −1): 102.1 % of Day −1
[21]
  Mean Body Weight: 20.0 g
  Mean Body Weight (% of Day −1): 99.5 % of Day −1
[22]
  Mean Body Weight: 19.5 g
  Mean Body Weight (% of Day −1): 96.9 % of Day −1
[23]
  Mean Body Weight: 19.5 g
  Mean Body Weight (% of Day −1): 97.0 % of Day −1
[24]
  Mean Body Weight: 20.3 g
  Mean Body Weight (% of Day −1): 101.5 % of Day −1
[25]
  Mean Body Weight: 20.8 g
  Mean Body Weight (% of Day −1): 103.9 % of Day −1
[26]
  Mean Body Weight: 20.4 g
  Mean Body Weight (% of Day −1): 101.8 % of Day −1
[27]
  Mean Body Weight: 20.6 g
  Mean Body Weight (% of Day −1): 103.0 % of Day −1
[28]
  Mean Body Weight: 20.2 g
  Mean Body Weight (% of Day −1): 100.0 % of Day −1
Compound A 3 mg/kg
  Mean Body Weight Change (% of Day −1): 103.0*** % of Day −1
[29]
  Mean Body Weight: 20.5 g
  Mean Body Weight (% of Day −1): 101.1 % of Day −1
[30]
  Mean Body Weight: 19.8 g
  Mean Body Weight (% of Day −1): 97.9 % of Day −1
[31]
  Mean Body Weight: 20.0 g
  Mean Body Weight (% of Day −1): 98.9 % of Day −1
[32]
  Mean Body Weight: 20.4 g
  Mean Body Weight (% of Day −1): 101.0 % of Day −1
[33]
  Mean Body Weight: 20.6 g
  Mean Body Weight (% of Day −1): 101.9 % of Day −1
[34]
  Mean Body Weight: 20.2 g
  Mean Body Weight (% of Day −1): 99.9 % of Day −1
[35]
  Mean Body Weight: 19.6 g
  Mean Body Weight (% of Day −1): 97.2 % of Day −1
[36]
  Mean Body Weight: 19.1 g
  Mean Body Weight (% of Day −1): 94.7 % of Day −1
[37]
  Mean Body Weight: 20.0 g
  Mean Body Weight (% of Day −1): 99.1 % of Day −1
[38]
  Mean Body Weight: 20.7 g
  Mean Body Weight (% of Day −1): 102.3 % of Day −1
[39]
  Mean Body Weight: 21.1 g
  Mean Body Weight (% of Day −1): 104.2 % of Day −1
[40]
  Mean Body Weight: 21.0 g
  Mean Body Weight (% of Day −1): 104.0 % of Day −1
[41]
  Mean Body Weight: 21.4 g
  Mean Body Weight (% of Day −1): 106.0 % of Day −1
[42]
  Mean Body Weight: 20.2 g
  Mean Body Weight (% of Day −1): 100.0 % of Day −1
Compound A 10 mg/kg
  Mean Body Weight Change (% of Day −1): 106.0*** % of Day −1
